Assay results as given in paper PMC5517430, “2,3,7,8-Tetrachlorodibenzo-p-dioxin (TCDD)-elicited effects on bile acid homeostasis: Alterations in biosynthesis, enterohepatic circulation, and microbial metabolism” (Scientific Reports, 2017).

System: hepatic gene expression
Experiment: Hepatic RNA-Seq differential gene expression (fold change, P1(t), ED50, BMD, BMDL)
Type: in vivo, mouse
Settings: liver
Description: Frozen ileal epithelium scrapings and liver samples were homogenized in TRIzol (Ambion, Waltham, MA) using a Mixer Mill 300 tissue homogenizer (Retsch, Germany) and total RNA was isolated as previously described. RNA was quantified using a Nano-drop spectrophotometer (Thermo Scientific, Wilmington, DE) at 260 nm, and purity was assessed using the A260/A280 ratio and the Caliper LabChip GX (Perkin Elmer, Waltham, MA).
Dose-dependent gene expression was examined using RNA-Seq performed at the MSU Research Technology Support Facility (RTSF) Genomics Core (rtsf.natsci.msu.edu/genomics). Ileal libraries from three independent biological replicates (n = 3) were prepared using the Ovation Mouse RNA-Seq System 1–16 sample preparation kit (NuGen, San Carlos, CA), with an additional DNase step. Libraries were quantified and sequenced as previously described, using a read depth of ~30 M per sample[33], [67]. Quality was determined using FASTQC v0.11.3 and adaptor sequences were removed using Trimmomatic v0.33. Reads were mapped to the mouse reference genome (GRCm38 release 81) using Bowtie2 v2.2.6 and TopHat2 v2.1.0. Alignments were converted to SAM format using SAMTools v1.2.0. For TCDD-mediated differential gene expression, fold changes were calculated relative to vehicle controls. Hepatic RNA-Seq analysis was previously published. Genes were considered differentially expressed if |fold change| ≥ 1.5 and statistical P1(t) value ≥ 0.8 at one or more doses. RNA-Seq datasets for the ileal epithelium and liver were deposited in the Gene Expression Omnibus (GEO; accession number GSE89430 and GSE87519, respectively). The RNA-Seq results (fold changes, P1(t) values) for each gene discussed in the manuscript have been compiled in Supplementary Table S1. […] Estimation of benchmark dose (BMD) and BMD lower confidence limit (BMDL) was performed using BMDExpress[69] as previously described, and has been included in Supplementary Table S1.

[1] = 0.01 µg/kg TCDD, relative to vehicle control
[2] = 0.03 µg/kg TCDD, relative to vehicle control
[3] = 0.1 µg/kg TCDD, relative to vehicle control
[4] = 0.3 µg/kg TCDD, relative to vehicle control

Clc1cc2c(cc1Cl)Oc1cc(Cl)c(Cl)cc1O2 [TCDD, 2,3,7,8-tetrachlorodibenzo-p-dioxin]
Slc6a6 (TAUT) BMD: 11.24 µg/kg TCDD | Slc6a6 (TAUT) BMDL: 8.25 µg/kg TCDD | Slc6a6 (TAUT) Differentially Expressed?: YES | Slc6a6 (TAUT) ED50: 13.27 µg/kg TCDD | Slc10a1 (NTCP or LBAT) BMD: 9.13 µg/kg TCDD | Slc10a1 (NTCP or LBAT) BMDL: 4.73 µg/kg TCDD | Slc10a1 (NTCP or LBAT) Differentially Expressed?: YES | Slc10a1 (NTCP or LBAT) ED50: 14.43 µg/kg TCDD | Slc27a5 BMD: 4.42 µg/kg TCDD | Slc27a5 BMDL: 3.04 µg/kg TCDD | Slc27a5 Differentially Expressed?: YES | Slc27a5 ED50: 11.65 µg/kg TCDD | Slco1a1 (OATP1A1) BMD: 8.64 µg/kg TCDD | Slco1a1 (OATP1A1) BMDL: 3.68 µg/kg TCDD | Slco1a1 (OATP1A1) Differentially Expressed?: YES | Slco1a1 (OATP1A1) ED50: 10.06 µg/kg TCDD | Slco1a4 (OATP1A4) BMD: 0.56 µg/kg TCDD | Slco1a4 (OATP1A4) BMDL: 0.000105 µg/kg TCDD | Slco1a4 (OATP1A4) Differentially Expressed?: YES | Slco1a4 (OATP1A4) ED50: Not sigmoidal | Slco1b2 (OATP1B2) BMD: 6.99 µg/kg TCDD | Slco1b2 (OATP1B2) BMDL: 4.27 µg/kg TCDD | Slco1b2 (OATP1B2) Differentially Expressed?: YES | Slco1b2 (OATP1B2) ED50: 12.87 µg/kg TCDD | Slco2b1 (OATP2B1) BMD: 4.52 µg/kg TCDD | Slco2b1 (OATP2B1) BMDL: 2.69 µg/kg TCDD | Slco2b1 (OATP2B1) Differentially Expressed?: YES | Slco2b1 (OATP2B1) ED50: 11.16 µg/kg TCDD | Soat1 BMD: No model fit | Soat1 BMDL: No model fit | Soat1 Differentially Expressed?: YES | Soat1 ED50: 8.88 µg/kg TCDD | Soat2 BMD: 7.18 µg/kg TCDD | Soat2 BMDL: 5.55 µg/kg TCDD | Soat2 Differentially Expressed?: YES | Soat2 ED50: Not sigmoidal | Sqle BMD: No model fit | Sqle BMDL: No model fit | Sqle Differentially Expressed?: YES | Sqle ED50: 19.37 µg/kg TCDD | Srebf2 BMD: 8.52 µg/kg TCDD | Srebf2 BMDL: 4.75 µg/kg TCDD | Srebf2 Differentially Expressed?: YES | Srebf2 ED50: 15.74 µg/kg TCDD | Sult2a8 BMD: 1.73 µg/kg TCDD | Sult2a8 BMDL: 1.40 µg/kg TCDD | Sult2a8 Differentially Expressed?: YES | Sult2a8 ED50: 11.63 µg/kg TCDD | Tm7sf2 BMD: 14.47 µg/kg TCDD | Tm7sf2 BMDL: 11.85 µg/kg TCDD | Tm7sf2 Differentially Expressed?: YES | Tm7sf2 ED50: 17.41 µg/kg TCDD | Slc6a6 (TAUT) FC_0.01 [1]: 0.98 | Slc10a1 (NTCP or LBAT) FC_0.01 [1]: 1.06 | Slc27a5 FC_0.01 [1]: 0.96 | Slco1a1 (OATP1A1) FC_0.01 [1]: 1.85 | Slco1a4 (OATP1A4) FC_0.01 [1]: 0.83 | Slco1b2 (OATP1B2) FC_0.01 [1]: 0.99 | Slco2b1 (OATP2B1) FC_0.01 [1]: 1.02 | Soat1 FC_0.01 [1]: 0.61 | Soat2 FC_0.01 [1]: 1.08 | Sqle FC_0.01 [1]: 1.57 | Srebf2 FC_0.01 [1]: 1.04 | Sult2a8 FC_0.01 [1]: 1.07 | Tm7sf2 FC_0.01 [1]: 1.06 | Slc6a6 (TAUT) FC_0.03 [2]: 0.99 | Slc10a1 (NTCP or LBAT) FC_0.03 [2]: 1.13 | Slc27a5 FC_0.03 [2]: 0.89 | Slco1a1 (OATP1A1) FC_0.03 [2]: 1.27 | Slco1a4 (OATP1A4) FC_0.03 [2]: 0.81 | Slco1b2 (OATP1B2) FC_0.03 [2]: 1.11 | Slco2b1 (OATP2B1) FC_0.03 [2]: 0.97 | Soat1 FC_0.03 [2]: 0.71 | Soat2 FC_0.03 [2]: 1.02 | Sqle FC_0.03 [2]: 1.40 | Srebf2 FC_0.03 [2]: 1.10 | Sult2a8 FC_0.03 [2]: 1.00 | Tm7sf2 FC_0.03 [2]: 0.92 | Slc6a6 (TAUT) FC_0.1 [3]: 1.04 | Slc10a1 (NTCP or LBAT) FC_0.1 [3]: 0.87 | Slc27a5 FC_0.1 [3]: 0.83 | Slco1a1 (OATP1A1) FC_0.1 [3]: 0.82 | Slco1a4 (OATP1A4) FC_0.1 [3]: 0.42 | Slco1b2 (OATP1B2) FC_0.1 [3]: 1.02 | Slco2b1 (OATP2B1) FC_0.1 [3]: 0.91 | Soat1 FC_0.1 [3]: 1.03 | Soat2 FC_0.1 [3]: 1.01 | Sqle FC_0.1 [3]: 1.57 | Srebf2 FC_0.1 [3]: 1.00 | Sult2a8 FC_0.1 [3]: 0.89 | Tm7sf2 FC_0.1 [3]: 0.82 | Slc6a6 (TAUT) FC_0.3 [4]: 1.15 | Slc10a1 (NTCP or LBAT) FC_0.3 [4]: 1.02 | Slc27a5 FC_0.3 [4]: 0.88 | Slco1a1 (OATP1A1) FC_0.3 [4]: 1.03 | Slco1a4 (OATP1A4) FC_0.3 [4]: 0.87
